Columns and labels:
[1] = biological target: T1, Cyclin-dependent kinase 11A (Homo sapiens) (UniProt Q9UQ88); assay: Selectivity interaction (Kinase panel (KiNativ target engagement assay in Jurkat cells)) EUB0001635a CDK11A; assay type: cell-based; settings: Selectivity number of off-targets 0.0, Selectivity number of targets 233.0, Source Knowledge https://www.sciencedirect.com/science/article/pii/S2451945619300674?via%3Dihub, at 1 µM
T1 sequence (whole entry): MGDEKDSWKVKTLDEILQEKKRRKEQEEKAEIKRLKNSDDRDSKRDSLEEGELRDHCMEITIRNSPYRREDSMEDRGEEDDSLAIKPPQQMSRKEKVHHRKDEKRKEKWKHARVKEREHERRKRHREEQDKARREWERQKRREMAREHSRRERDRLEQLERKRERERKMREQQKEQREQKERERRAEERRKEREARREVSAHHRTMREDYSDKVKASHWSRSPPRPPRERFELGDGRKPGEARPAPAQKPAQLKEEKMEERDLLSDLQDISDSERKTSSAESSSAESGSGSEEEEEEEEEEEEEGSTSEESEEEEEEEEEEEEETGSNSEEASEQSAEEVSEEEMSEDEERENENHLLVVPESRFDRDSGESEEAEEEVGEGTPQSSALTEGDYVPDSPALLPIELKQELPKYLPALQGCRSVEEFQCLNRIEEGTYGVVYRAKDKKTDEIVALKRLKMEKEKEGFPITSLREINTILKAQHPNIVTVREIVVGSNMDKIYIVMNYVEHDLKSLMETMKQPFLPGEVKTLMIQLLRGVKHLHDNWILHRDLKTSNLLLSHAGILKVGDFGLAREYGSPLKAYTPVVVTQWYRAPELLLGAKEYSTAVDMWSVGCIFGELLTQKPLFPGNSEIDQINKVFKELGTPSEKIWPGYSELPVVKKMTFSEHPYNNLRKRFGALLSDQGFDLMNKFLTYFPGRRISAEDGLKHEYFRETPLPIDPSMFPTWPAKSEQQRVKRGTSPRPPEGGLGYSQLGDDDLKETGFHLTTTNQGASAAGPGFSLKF

[2] = biological target: Calcium/calmodulin-dependent protein kinase kinase 2 (Homo sapiens) (UniProt Q96RR4); assay: Selectivity interaction (Kinase panel (KiNativ target engagement assay in Jurkat cells)) EUB0001635a CAMKK2; assay type: cell-based; settings: Selectivity number of off-targets 0.0, Selectivity number of targets 233.0, Source Knowledge https://www.sciencedirect.com/science/article/pii/S2451945619300674?via%3Dihub, at 1 µM
[3] = biological target: Bone morphogenetic protein receptor type-1A (Homo sapiens, UniProt P36894); assay: Selectivity interaction (KinomeScan (DiscoverX)) EUB0000045b BMPR1A
[4] = biological target: Casein kinase I isoform gamma-2 (Homo sapiens) (UniProt P78368); settings: at 10 µM
[5] = biological target: Serine/threonine-protein kinase mTOR (Homo sapiens, UniProt P42345); assay: Selectivity interaction (KinomeScan (DiscoverX)) EUB0001619a MTOR; settings: at 1 µM
[6] = biological target: Serine/threonine-protein kinase PLK2 (Homo sapiens, UniProt Q9NYY3); assay: Selectivity interaction (KinomeScan (DiscoverX)) EUB0001619a PLK2; settings: at 1 µM
[7] = biological target: Mitogen-activated protein kinase 1 (Homo sapiens, UniProt P28482); assay: Selectivity interaction (KinomeScan (DiscoverX)) EUB0000607a MAPK1; settings: at 10 µM
[8] = biological target: Cyclin-dependent kinase 5 (Homo sapiens, UniProt Q00535); assay: Selectivity interaction (ActivX KiNativ screen (kinase selectivity in THP-1 cell lysates)) EUB0000639a CDK5; assay type: subcellular; settings: lysate, at 5 µM
[9] = biological target: MAP/microtubule affinity-regulating kinase 3 (Homo sapiens) (UniProt P27448); assay: Selectivity interaction (ActivX KiNativ screen (kinase selectivity in THP-1 cell lysates)) EUB0000639a MARK3; assay type: subcellular; settings: lysate, at 0.2 µM
[10] = biological target: SRSF protein kinase 2 (Homo sapiens) (UniProt P78362); assay: Selectivity interaction (Kinase panel (Invitrogen)) EUB0000639a SRPK2; settings: at 200 nM
[11] = biological target: T2, Cyclin-G-associated kinase (Homo sapiens) (UniProt O14976); assay: Selectivity interaction (KinomeScan (DiscoverX)) EUB0000092b GAK; settings: at 10 µM
T2 sequence (whole entry): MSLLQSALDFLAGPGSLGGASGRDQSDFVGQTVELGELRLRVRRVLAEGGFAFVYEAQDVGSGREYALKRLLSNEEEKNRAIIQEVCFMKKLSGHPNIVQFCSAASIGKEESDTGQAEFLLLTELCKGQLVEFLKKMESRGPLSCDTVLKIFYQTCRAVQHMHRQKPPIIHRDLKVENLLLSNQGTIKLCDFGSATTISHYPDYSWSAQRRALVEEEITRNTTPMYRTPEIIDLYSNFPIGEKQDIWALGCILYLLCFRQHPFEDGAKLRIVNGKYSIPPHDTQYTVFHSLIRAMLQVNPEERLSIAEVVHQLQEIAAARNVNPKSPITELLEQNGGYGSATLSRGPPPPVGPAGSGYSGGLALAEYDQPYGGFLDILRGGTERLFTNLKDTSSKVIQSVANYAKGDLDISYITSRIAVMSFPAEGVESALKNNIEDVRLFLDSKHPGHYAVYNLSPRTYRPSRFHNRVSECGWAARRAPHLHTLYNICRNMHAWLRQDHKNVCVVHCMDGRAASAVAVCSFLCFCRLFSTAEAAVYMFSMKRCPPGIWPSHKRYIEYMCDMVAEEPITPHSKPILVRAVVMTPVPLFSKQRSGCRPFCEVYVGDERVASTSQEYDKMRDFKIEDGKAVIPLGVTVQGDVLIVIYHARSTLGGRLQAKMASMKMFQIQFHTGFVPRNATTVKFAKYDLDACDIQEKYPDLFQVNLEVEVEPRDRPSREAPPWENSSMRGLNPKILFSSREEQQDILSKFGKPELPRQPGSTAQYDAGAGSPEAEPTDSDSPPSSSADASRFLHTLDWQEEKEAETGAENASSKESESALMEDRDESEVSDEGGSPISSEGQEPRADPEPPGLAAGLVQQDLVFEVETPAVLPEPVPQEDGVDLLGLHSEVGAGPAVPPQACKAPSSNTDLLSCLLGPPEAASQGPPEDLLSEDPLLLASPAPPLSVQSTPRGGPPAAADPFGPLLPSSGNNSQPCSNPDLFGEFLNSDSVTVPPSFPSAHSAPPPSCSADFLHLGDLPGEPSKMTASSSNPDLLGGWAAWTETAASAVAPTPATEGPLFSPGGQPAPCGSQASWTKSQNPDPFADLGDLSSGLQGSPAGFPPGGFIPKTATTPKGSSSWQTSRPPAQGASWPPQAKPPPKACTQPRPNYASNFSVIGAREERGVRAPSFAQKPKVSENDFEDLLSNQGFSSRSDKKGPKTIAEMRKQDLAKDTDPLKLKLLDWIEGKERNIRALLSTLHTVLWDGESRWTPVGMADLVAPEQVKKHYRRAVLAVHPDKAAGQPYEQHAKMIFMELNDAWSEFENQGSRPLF

[12] = biological target: Serine/threonine-protein kinase RIO2 (Homo sapiens) (UniProt Q9BVS4); assay: Selectivity interaction (Ambit KINOMEscan and KiNATiv profiling in Jurkat cells) EUB0000090b RIOK2; assay type: cell-based; settings: at 1 µM
Serine/threonine-protein kinase RIO2 (Homo sapiens), sequence (Q9BVS4 whole entry, looked up): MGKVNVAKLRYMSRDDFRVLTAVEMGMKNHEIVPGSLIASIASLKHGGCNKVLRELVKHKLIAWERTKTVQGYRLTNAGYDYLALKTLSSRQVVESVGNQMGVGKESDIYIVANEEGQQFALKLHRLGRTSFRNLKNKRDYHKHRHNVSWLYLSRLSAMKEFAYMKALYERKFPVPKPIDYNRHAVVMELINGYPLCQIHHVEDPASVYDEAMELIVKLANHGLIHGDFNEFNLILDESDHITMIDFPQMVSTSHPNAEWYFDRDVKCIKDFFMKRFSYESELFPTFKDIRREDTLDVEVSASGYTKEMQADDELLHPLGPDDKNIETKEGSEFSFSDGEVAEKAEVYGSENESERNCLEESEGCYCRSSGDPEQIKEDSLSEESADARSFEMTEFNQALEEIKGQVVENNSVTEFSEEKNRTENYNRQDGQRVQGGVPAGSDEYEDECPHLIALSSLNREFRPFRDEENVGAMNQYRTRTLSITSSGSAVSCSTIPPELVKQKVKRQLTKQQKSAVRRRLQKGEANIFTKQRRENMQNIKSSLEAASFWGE

Bone morphogenetic protein receptor type-1A, sequence (P36894 whole entry, canonical isoform): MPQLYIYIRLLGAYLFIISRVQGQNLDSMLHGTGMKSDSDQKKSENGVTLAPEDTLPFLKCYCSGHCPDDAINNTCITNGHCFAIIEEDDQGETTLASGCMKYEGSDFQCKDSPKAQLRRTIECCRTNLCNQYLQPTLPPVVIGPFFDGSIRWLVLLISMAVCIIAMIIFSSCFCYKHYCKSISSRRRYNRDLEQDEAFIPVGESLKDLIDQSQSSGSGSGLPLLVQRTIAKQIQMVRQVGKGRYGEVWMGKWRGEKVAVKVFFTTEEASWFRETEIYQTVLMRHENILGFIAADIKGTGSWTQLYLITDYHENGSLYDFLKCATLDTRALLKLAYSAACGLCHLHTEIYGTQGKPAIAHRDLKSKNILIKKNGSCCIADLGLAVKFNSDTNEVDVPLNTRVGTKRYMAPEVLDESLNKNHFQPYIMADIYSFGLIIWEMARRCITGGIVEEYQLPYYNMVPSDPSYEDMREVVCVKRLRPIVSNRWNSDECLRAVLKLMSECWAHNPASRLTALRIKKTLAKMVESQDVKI
Mitogen-activated protein kinase 1, sequence (P28482 whole entry): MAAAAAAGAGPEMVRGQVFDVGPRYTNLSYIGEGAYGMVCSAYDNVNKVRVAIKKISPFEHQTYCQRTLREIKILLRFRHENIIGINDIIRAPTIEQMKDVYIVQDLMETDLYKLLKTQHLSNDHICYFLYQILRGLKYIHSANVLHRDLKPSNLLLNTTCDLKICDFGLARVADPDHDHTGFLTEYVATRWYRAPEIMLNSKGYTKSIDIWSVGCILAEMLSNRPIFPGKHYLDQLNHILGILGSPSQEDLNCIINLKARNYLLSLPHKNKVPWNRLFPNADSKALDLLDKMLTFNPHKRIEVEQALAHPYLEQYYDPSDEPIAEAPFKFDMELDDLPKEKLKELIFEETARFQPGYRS
MAP/microtubule affinity-regulating kinase 3 (Homo sapiens), sequence (P27448 whole entry, looked up): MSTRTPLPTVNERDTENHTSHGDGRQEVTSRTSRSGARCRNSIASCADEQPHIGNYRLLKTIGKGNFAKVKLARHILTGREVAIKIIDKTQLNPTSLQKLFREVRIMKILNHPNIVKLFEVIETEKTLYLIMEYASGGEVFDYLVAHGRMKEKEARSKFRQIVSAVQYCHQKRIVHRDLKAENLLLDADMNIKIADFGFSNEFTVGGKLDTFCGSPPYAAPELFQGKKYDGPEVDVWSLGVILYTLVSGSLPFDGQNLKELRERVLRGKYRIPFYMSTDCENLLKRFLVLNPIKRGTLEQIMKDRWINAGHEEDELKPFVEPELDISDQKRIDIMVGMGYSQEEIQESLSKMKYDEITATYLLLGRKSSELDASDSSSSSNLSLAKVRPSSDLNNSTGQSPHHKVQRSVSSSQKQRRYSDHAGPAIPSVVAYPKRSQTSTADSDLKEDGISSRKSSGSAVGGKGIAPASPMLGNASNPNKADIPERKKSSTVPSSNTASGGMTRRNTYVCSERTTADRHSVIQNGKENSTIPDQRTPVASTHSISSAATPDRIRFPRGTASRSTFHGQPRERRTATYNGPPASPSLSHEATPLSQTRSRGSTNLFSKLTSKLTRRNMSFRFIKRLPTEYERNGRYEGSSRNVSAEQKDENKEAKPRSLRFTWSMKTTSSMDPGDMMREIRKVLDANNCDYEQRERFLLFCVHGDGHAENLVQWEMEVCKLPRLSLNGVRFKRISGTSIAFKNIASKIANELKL
Calcium/calmodulin-dependent protein kinase kinase 2 (Homo sapiens), sequence (Q96RR4 2-588 limits assumed): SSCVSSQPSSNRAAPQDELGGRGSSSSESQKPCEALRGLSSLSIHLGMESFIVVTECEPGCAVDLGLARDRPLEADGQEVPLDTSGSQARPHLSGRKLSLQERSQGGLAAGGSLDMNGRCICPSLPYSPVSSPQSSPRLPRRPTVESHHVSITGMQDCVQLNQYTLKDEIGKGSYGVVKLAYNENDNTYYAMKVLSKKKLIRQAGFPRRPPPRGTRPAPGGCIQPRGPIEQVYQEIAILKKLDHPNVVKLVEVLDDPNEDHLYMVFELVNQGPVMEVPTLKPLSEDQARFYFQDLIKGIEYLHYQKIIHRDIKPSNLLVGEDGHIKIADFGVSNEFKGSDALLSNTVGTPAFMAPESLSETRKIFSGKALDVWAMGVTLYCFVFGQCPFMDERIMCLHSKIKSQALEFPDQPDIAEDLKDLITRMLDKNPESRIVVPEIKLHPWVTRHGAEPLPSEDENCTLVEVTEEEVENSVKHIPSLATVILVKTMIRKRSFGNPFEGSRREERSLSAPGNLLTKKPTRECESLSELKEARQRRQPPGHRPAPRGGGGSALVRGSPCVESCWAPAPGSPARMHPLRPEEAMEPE
Serine/threonine-protein kinase PLK2, sequence (Q9NYY3 whole entry, looked up): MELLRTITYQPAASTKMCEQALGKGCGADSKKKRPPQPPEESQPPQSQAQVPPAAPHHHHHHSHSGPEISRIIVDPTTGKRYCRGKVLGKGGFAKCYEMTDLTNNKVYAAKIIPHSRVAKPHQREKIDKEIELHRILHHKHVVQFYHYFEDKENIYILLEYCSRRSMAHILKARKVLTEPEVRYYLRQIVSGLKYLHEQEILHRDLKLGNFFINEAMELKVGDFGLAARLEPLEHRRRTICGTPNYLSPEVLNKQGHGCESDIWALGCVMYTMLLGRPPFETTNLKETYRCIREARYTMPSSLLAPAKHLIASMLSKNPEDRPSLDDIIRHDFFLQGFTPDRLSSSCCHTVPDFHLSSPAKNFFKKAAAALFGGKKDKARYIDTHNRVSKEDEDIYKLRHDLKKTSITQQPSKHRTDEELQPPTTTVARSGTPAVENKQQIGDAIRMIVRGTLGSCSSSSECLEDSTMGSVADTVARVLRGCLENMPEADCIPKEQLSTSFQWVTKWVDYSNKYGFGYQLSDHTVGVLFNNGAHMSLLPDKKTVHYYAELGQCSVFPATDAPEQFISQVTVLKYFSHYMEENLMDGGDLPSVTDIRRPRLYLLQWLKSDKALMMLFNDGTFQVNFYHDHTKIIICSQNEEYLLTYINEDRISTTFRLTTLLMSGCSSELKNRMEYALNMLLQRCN
Cyclin-dependent kinase 5, sequence (Q00535 whole entry, looked up): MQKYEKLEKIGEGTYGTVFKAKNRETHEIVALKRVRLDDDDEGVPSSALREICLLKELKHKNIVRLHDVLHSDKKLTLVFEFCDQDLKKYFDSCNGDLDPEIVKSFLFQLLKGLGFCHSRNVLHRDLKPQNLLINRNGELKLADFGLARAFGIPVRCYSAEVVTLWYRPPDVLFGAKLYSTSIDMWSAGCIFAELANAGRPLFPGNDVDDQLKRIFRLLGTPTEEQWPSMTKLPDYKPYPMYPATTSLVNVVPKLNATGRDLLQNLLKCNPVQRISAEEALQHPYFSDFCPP
SRSF protein kinase 2 (Homo sapiens), sequence (P78362 whole entry, looked up): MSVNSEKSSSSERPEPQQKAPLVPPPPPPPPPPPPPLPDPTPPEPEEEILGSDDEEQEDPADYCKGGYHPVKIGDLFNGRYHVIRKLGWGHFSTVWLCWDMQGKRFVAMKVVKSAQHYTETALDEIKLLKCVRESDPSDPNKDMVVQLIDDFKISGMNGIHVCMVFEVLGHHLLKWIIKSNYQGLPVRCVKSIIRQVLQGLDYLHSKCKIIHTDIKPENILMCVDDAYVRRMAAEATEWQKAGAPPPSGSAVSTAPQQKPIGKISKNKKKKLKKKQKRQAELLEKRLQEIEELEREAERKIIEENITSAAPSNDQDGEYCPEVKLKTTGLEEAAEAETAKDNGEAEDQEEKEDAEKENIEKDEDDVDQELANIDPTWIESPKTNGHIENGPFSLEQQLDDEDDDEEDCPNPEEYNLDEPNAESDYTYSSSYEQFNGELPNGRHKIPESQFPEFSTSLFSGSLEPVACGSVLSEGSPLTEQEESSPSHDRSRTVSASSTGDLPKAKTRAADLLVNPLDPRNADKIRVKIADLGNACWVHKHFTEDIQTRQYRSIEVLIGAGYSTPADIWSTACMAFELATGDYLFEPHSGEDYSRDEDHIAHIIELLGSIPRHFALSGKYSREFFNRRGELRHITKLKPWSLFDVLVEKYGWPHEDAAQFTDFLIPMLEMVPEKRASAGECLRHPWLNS
Casein kinase I isoform gamma-2 (Homo sapiens), sequence (P78368 whole entry, looked up, canonical isoform): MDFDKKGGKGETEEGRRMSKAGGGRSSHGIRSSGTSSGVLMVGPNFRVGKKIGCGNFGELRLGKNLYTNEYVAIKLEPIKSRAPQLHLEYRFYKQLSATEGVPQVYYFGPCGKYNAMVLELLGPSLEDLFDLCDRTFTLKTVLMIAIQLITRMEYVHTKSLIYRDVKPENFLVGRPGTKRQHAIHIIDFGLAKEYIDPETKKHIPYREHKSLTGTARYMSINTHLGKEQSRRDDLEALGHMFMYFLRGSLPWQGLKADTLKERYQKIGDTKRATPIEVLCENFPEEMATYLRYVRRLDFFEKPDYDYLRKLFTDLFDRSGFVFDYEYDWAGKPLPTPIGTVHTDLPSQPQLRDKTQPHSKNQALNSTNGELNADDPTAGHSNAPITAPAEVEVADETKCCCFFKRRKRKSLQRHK

SMILES: C=CC(=O)Nc1ccc(C(=O)Nc2[nH]nc3c2CN(C(=O)N[C@H](CN(C)C)c2ccccc2)C3(C)C)cc1
- % of engagement [1]: -15.7%
- % of engagement [2]: -3.1%

SMILES: C=CC(=O)Nc1cc(-n2c(=O)ccc3cnc4ccc(-c5ccc(NS(C)(=O)=O)cc5)cc4c32)ccc1C
- % of control ([3]; at 1 µM): 84%
- % of control ([3]; at 10 µM): 100%

SMILES: Cc1cc([C@@H](C)Nc2ccccc2C(=O)O)c2nc(N3CCOCC3)cc(=O)n2c1 [AZD-6482]
- % of control [4]: 88%

SMILES: N#Cc1cccc(-c2c[nH]c3ncnc(N4CCOCC4)c23)c1
- % of control [5]: 58%
- % of control [6]: 100%

SMILES: CNC(=O)Nc1ccc(-c2nc(N3CC4CCC(C3)O4)c3cnn(C4CCC5(CC4)OCCO5)c3n2)cc1
- % of control [7]: 87%

SMILES: CC[C@@H]1[C@H](F)C(=O)N[C@@H]1COc1nccc2cc(C(N)=O)c(OC)cc12 [ZIMLOVISERTIB]
- % of inhibition [8]: -23.1%
- % of inhibition [9]: 19.8%
- % of inhibition [10]: -1.85%

SMILES: CCC(=O)N1CCN(c2ccc(-n3c(=O)ccc4cnc5ccc(-c6cnc7ccccc7c6)cc5c43)cc2C(F)(F)F)CC1
- % of control [11]: 57%

SMILES: CN(C)C/C=C/C(=O)Nc1ccc(C(=O)N2CCCC(Nc3ncc(Cl)c(-c4c[nH]c5ccccc45)n3)C2)cc1 (stereo not drawn)
- % of control [12]: 10%

Source: ChEMBL document CHEMBL5465560, “Selectivity Literature for EUbOPEN Chemogenomic Library” (2024)
